Test results taken from patent publication US5053006A, “Method for the permanent occlusion of arteries” (priority 1990, dated 1991).

Columns and labels:
[1] = compared with rose bengal; cited from earlier work
[2] = Absorption / excitation of the dye in tissue; type: physicochemical; conditions: endothelial tissue
Excerpt: Examples of lasers that can be used to provide the light beam include the He-Ne laser, the argon ion laser and the argon-pumped dye laser. The 543.5 nm He-Ne laser, for example, can excite rose bengal with an efficiency of 58% of the maximum. (The wavelength at which excitation efficiency for rose bengal is maximal in tissue occurs at 562 nm.) Because the maximum theoretical power output is only 4 or 5 milliwatts, the 543.5 nm He-Ne laser is not used in clinical applications at this time. However, this laser is expected to be particularly useful in permanently occluding relatively low-flow arteries, smaller than about 200 μm, such as those in the choroid of the eye.
The argon ion laser is the most common clinical laser used at this time. Although the commonly used argon 514.5 nm line is only 36% efficient with respect to the maximum of rose bengal absorption, this laser is much more powerful (by at least a factor of 1000) and versatile than the He-Ne laser.
The absorption maximum of erythrosin B in endothelial tissue is at 536 nm, which is closer than that of rose bengal to the standard 514.5 nm wavelength of the argon ion laser.

middle cerebral artery = test: Erythrosin B photothrombotic occlusion of middle cerebral artery; type: in vivo, rat
[3] = in vivo; cited from earlier work

absorption maximum in endothelial tissue [2] [nm]	Compound	quantum efficiency for singlet oxygen production [1]	photothrombotic efficiency in vivo (middle cerebral artery; 514.5 nm argon line, vs rose bengal)	photothrombotic occlusion of rat MCA (middle cerebral artery; i.v., argon ion laser, 680 μM blood concentration)	half life [3]
536	O.O=C([O-])c1ccccc1-c1c2cc(I)c(=O)c(I)c-2oc2c(I)c([O-])c(I)cc12.[Na+].[Na+] [erythrosin B]	slightly less	comparable photothrombotic efficiency	photothrombotically occlude the rat middle cerebral artery in the same fashion as rose bengal	–
–	dihematoporphyrin ether [dihematoporphyrin ether derivative]	–	–	–	so long
